Laboratory results as given in ChEMBL document CHEMBL1158215, “Three new cytotoxic sesterterpenes from the marine sponge Hyrtios cf. erectus” (J Nat Prod, 1996).
In brackets after ≈: the same amount, converted by molar mass.

These compounds were tested on P388 (assay: Cytotoxicity against mouse P388 cells).
Assay type: functional, cell-based

Compound | IC50
CC(=O)O[C@@H]1C[C@@H]2[C@@]3(C)CCCC(C)(C)[C@@H]3CC[C@@]2(C)[C@@H]2C[C@H](O)C3=CC(=O)O[C@@H]3[C@@]12C | 2.1 µg/mL (≈ 4.72 µM)
CC1(C)CCC[C@]2(C)[C@H]3C[C@@H](O)[C@]4(C)[C@H]5OC(=O)C=C5[C@@H](O)C[C@H]4[C@]3(C)CC[C@@H]12 | 0.4 µg/mL (≈ 0.994 µM)
CC(=O)OC[C@]1(C)CCC[C@]2(C)[C@H]3CC[C@@]4(C)[C@@H](CC=C5C(=O)O[C@@H](O)[C@@H]54)[C@]3(C)CC[C@@H]12 | 0.9 µg/mL (≈ 2.02 µM)
